In patent US9169307B2 (The Trustees of the University of Pennsylvania, priority 2005, dated 2015):
Read-outs that look alike come from different tables or passages of the source. Bridges are numbered along the chain shown (N, C = ends). [ ]: non-standard residue; d: D form. Trp(5-F) = N[C@@H](Cc1c[nH]c2ccc(F)cc12)C(=O)O; Trp(6-F) = N[C@@H](Cc1c[nH]c2cc(F)ccc12)C(=O)O

Assays:
[1] = test system: activation of the complement system by immunocomplexes (C3b/iC3b deposition); conditions: cited from earlier work; for Activity over compstatin: Table 1A, previously described analogs (WO2004/026328)
[2] = test system: activation of the complement system by immunocomplexes (C3b/iC3b deposition); test: Complement inhibition assay (ELISA): inhibition of C3 fixation to ovalbumin-anti-ovalbumin complexes in normal human plasma; type: biochemical; conditions: for complement inhibitory activity (in words): at the concentrations tested; for amount of conjugate required to achieve the same inhibition as Ac-V4(1-methyl-W)/H9A: relative to Ac-V4(1-methyl-W)/H9A (SEQ ID NO:23); for Activity over compstatin: Table 1B, exemplary analogs described herein; for Relative activity: Table 2, relative to the activity of compstatin (SEQ ID NO: 1)
Procedure: Complement activation inhibition was assessed by measuring the inhibition of C3 fixation to ovalbumin-anti-ovalbumin complexes in normal human plasma. Microtiter wells were coated with 50 μl of ovalbumin (10 mg/ml) for 2 hr at 25° C. (overnight at 4° C.). The wells were saturated with 200 μl of 10 mg/ml BSA for 1 hr at 25° C. and then a rabbit anti-ovalbumin antibody was added to form an immunocomplex by which complement can be activated. Thirty microliters of peptides at various concentrations were added directly to each well followed by 30 μl of a 1:80 dilution of human plasma. After 30 min incubation, bound C3b/iC3b was detected using a goat anti-human C3 HRP-conjugated antibody. Color was developed by adding ABTS peroxidase substrate and optical density measured at 405 nm.
The % inhibition was plotted against the peptide concentration, and the resulting data set was fit to the logistic dose-response function using Origin 7.0 software. […] IC50 values were obtained from the fitted parameters that achieved the lowest chi-square value.

C3 = C3 (Homo sapiens, UniProt P01024); test: Isothermal titration calorimetry of the interaction of C3 with compstatin analogs; type: binding
Sequence of C3 (P01024 23-1663): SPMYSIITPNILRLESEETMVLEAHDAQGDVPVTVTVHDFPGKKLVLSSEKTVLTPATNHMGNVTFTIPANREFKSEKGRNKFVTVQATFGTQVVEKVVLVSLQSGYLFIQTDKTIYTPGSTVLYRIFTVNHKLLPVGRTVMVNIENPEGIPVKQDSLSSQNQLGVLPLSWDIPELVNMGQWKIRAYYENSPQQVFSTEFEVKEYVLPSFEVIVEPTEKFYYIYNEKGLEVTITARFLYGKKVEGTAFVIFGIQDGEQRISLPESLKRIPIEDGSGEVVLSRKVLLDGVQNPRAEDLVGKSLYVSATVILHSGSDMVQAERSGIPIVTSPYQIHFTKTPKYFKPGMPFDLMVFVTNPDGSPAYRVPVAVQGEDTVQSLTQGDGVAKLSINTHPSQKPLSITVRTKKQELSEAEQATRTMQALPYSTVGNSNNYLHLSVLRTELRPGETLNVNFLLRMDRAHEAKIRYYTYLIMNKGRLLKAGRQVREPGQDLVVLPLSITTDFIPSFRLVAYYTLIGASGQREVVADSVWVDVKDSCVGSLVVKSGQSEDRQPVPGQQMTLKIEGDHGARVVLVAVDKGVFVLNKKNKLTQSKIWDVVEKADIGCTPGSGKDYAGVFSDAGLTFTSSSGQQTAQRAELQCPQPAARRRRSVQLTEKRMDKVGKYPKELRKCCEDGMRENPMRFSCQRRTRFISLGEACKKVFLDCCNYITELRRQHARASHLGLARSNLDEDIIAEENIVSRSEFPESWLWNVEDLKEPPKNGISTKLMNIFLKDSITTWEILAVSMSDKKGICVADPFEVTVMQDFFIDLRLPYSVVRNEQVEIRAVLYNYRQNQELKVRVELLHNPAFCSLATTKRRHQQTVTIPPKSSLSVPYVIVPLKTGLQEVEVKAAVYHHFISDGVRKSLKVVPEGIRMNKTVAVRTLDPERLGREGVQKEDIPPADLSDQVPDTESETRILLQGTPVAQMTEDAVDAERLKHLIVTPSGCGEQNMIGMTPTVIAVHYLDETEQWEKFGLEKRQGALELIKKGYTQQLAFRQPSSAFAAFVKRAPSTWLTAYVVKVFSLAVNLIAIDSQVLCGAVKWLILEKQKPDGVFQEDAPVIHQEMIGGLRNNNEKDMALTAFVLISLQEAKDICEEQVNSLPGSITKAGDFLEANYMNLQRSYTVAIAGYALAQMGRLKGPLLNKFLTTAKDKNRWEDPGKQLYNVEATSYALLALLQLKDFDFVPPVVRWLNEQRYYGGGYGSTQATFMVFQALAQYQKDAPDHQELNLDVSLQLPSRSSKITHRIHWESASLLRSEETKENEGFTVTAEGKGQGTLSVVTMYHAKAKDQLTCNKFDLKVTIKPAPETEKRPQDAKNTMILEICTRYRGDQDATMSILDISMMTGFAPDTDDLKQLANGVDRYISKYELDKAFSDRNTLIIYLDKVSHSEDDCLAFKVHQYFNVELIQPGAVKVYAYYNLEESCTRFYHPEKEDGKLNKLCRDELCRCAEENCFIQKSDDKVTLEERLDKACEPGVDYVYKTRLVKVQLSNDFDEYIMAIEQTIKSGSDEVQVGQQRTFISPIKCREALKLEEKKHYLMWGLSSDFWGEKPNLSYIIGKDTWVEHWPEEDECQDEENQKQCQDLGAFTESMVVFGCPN
Procedure: Isothermal titration calorimetry experiments were performed using the Microcal VP-ITC calorimeter (Microcal Inc, Northampton, Mass.). Protein concentrations of 3.5-5 μM and peptide concentrations of 80-200 μM were used for these experiments. All titrations were performed in PBS (10 mM phosphate buffer with 150 mM NaCl, pH 7.4). In each experiment, the target protein, C3, was loaded into the cell, and peptide was loaded into the syringe. All experiments were performed at 25° C. and for each experiment, 2-μl peptide injections were made into the cell containing the protein. In each experiment, the raw isotherms were corrected for the heats of dilution by subtracting the isotherms representing peptide injections into the buffer. The resulting isotherms were fit to various models within the Origin 7.0 software, and the model that achieved the lowest chi square value was deemed to be appropriate for the respective dataset. Binding affinity and entropy values were plotted against log P values.

[3] = test system: alternative pathway-mediated erythrocyte lysis; conditions: cited from earlier work
[4] = relative to Ac-V4W/H9A (SEQ ID NO:5)

## Ac-ICV(Bpa)QDWGAHRCT-COOH [Ac-V4(Bpa)/H9A −OH]
[1]
  Activity over compstatin: 49 × more
[1]; analogs disclosed in WO2004/026328
  fold greater activity than compstatin: 49 fold

## Ac-ICVVQDWGHHRCT-CONH2 [Ac-compstatin]
[1]
  Activity over compstatin: 3 × more

## Ac-ICVDhtQDWGAHRCT-COOH [Ac-V4Dht/H9A −OH]
[1]
  Activity over compstatin: 5 × more

## Ac-V4(1-methyl-W)/H9A-K-PEG 5000: Ac-V4(1-methyl-W)/H9A with C-terminal lysine whose side chain is linked to PEG 5000 (ICVWQDWGAHRCTK; N-acetyl; 1-methyl-Trp at 4; C-terminal Lys-PEG5000)
[2]
  complement inhibitory activity (in words): active in inhibiting complement activation
  amount of conjugate required to achieve the same inhibition as Ac-V4(1-methyl-W)/H9A: seven-fold more conjugate was required

## H-GICV(6f-l-W)QD(6f-l-W)GAHRCTN-COOH (H-GICV[Trp(6-F)]QD[Trp(6-F)]GAHRCTN-OH; disulfide 3-13 (inferred)) [G(−1)/V4(6fW)/W7(6fW)/H9A/N14, bacterially expressed compstatin analog]
[2]
  Activity over compstatin: 126 × more
  Relative activity: 126
[2]; Table 2, expressed peptides
  IC50: 430 nM
[2]; [4]
  fold higher activity than Ac-V4W/H9A: 2.8 fold

## Ac-ICV(2-Igl)QDWGAHRCT-CONH2 [Ac-V4Igl/H9A]
[1]
  Activity over compstatin: 39 × more

## Ac-ICV(1MeW)QDWGAHRCTRLIEDICLPRWGCLWEDD-NH2 [Albumin-binding peptide-compstatin]
[2]
  complement inhibitory activity (in words): active in inhibiting complement activation
  amount of conjugate required to achieve the same inhibition as Ac-V4(1-methyl-W)/H9A: seven-fold more conjugate was required

## Ac-ICV(2-Igl)QDWGAHRCT-COOH [Ac-V4Igl/H9A −OH]
[1]
  Activity over compstatin: 37 × more

## Ac-ICV(2-Nal)QDWGAHRCT-COOH [Ac V4(2-Nal)/H9A −OH]
[1]
  Activity over compstatin: 39 × more

## CC[C@H](C)[C@H](NC(C)=O)C(=O)N[C@H]1CSSC[C@@H](C(=O)N[C@H](C(N)=O)[C@@H](C)O)NC(=O)[C@H](CCCNC(=N)N)NC(=O)[C@H](Cc2c[nH]cn2)NC(=O)[C@H](C)NC(=O)CNC(=O)[C@H](Cc2c[nH]c3ccccc23)NC(=O)[C@H](CC(=O)O)NC(=O)[C@H](CCC(N)=O)NC(=O)[C@H](Cc2ccc3ccccc3c2)NC(=O)[C@H](C(C)C)NC1=O [Ac-V4(2-Nal)/H9A]
[2]; Table 5
  IC50: 545 nM
C3; Table 6, ITC, 25° C.
  ΔG: -9.5 kcal/mol
  −TΔS: 4.8 kcal/mol
C3; Table 6, relative to Wild-type
  ΔΔG: -0.1 kcal/mol
  ΔΔH: 3.87 kcal/mol
  −TΔΔS: -3.99 kcal/mol
[1]
  Activity over compstatin: 99 × more

## Ac-ICVYQDWGAHRCT-CONH2 (Ac-ICVYQDWGAHRCT-NH2; disulfide 2-12 (inferred)) [Ac-V4Y/H9A]
[1]
  Activity over compstatin: 19 × more

## CC[C@H](C)[C@H](N)C(=O)N[C@H]1CSSC[C@@H](C(=O)N[C@H](C(N)=O)[C@@H](C)O)NC(=O)[C@H](CCCN=C(N)N)NC(=O)[C@H](Cc2cnc[nH]2)NC(=O)[C@H](Cc2cnc[nH]2)NC(=O)CNC(=O)[C@H](Cc2c[nH]c3ccccc23)NC(=O)[C@H](CC(=O)O)NC(=O)[C@H](CCC(N)=O)NC(=O)[C@H](C(C)C)NC(=O)[C@H](C(C)C)NC1=O [Compstatin]
[3]
  IC50: 12 µM

## Ac-ICV(1-Nal)QDWGAHRCT-COOH [Ac V4(1-Nal)/H9A −OH]
[1]
  Activity over compstatin: 30 × more

## GICVWQDWGAHRCTN [G(−1)/V4W/H9A/N14, bacterially expressed compstatin analog]
[2]
  Activity over compstatin: 45 × more
  Relative activity: 45
[2]; Table 2, expressed peptides
  IC50: 1200 nM

## H-GICV(5f-l-W)QD(5f-l-W)GAHRCTN-COOH (H-GICV[Trp(5-F)]QD[Trp(5-F)]GAHRCTN-OH; disulfide 3-13 (inferred)) [G(−1)/V4(5fW)/W7(5fW)/H9A/N14, bacterially expressed compstatin analog]
[2]
  Activity over compstatin: 112 × more
  Relative activity: 112
[2]; Table 2, expressed peptides
  IC50: 480 nM
[2]; [4]
  fold higher activity than Ac-V4W/H9A: 2.5 fold

## GICVWQDWGAHRCTN [G(−1)/V4(5-OH-W)/W7(5-OH-W)/H9A/N14]
[2]; Table 2, expressed peptides
  IC50: 33000 nM
[2]
  Relative activity: 1.6
[2]; [4]
  fold loss in activity / times less active compared to Ac-V4W/H9A: 27.5 fold
